Results: patent US10377783B2, “Methods and compounds for enhancing contrast in magnetic resonance imaging (MRI)” (priority 2015, dated 2019)

Tests used:
[1] = system: male rat (Sprague Dawley Crl:SD); experiment: In vivo MRI imaging of 2 and 6, T1-weighted scans; settings: for T1-weighted MRI signal intensity, bladder: baseline (−10 min) 5085; for T1-weighted MRI signal intensity, lean muscle: baseline (−10 min) 5640; for T1-weighted MRI signal intensity, liver: baseline (−10 min) 7276; for T1-weighted MRI signal intensity, renal medulla: baseline (−10 min) 7725; for T1-weighted MRI signal intensity, renal cortex: baseline (−10 min) 8005; for T1-weighted MRI signal intensity, fat: baseline (−10 min) 14509
Protocol: (§1) Compound 1 (aq., 12.5 mM) was injected intravenously into 2 male rats (Sprague Dawley Crl:SD, 312-338 g) at a dosage of 0.02 mmol/kg following anaesthesia with 5% isoflurane. Compound 2 (aq., 6.25 mM) was injected intravenously into 1 male rat (Sprague Dawley Crl:SD, 349 g) at a dosage of 0.01 mmol/kg following anaesthesia with 5% isoflurane. Compound 6 (aq., 6.25 mM) was injected intravenously into 1 male rat (Sprague Dawley Crl:SD, 341 g) at a dosage of 0.01 mmol/kg following anaesthesia with 5% isoflurane. Anesthesia was maintained at 2-2.5% isoflurane through a nose cone for the duration of the scans. Fast-spin-echo images were collected for 45 mins. immediately post-injection. For compound 1, the DT1-weighted RARE (Rapid Acquisition Relaxation Enhancement) scans were acquired with an echo time of 10 ms, and a repetition time=respiratory cycle duration (˜1100 ms). Both T1- and T2-weighted scans were collected on compounds 2 and 6.
(§2) The in vivo contrast potential of compounds 1, 2 and 6 were studied via the collection of fast-spin-echo images for 30-45 minutes immediately following injection of an aqueous solution of each complex. The dosage chosen for 1 was 0.02 mmol/kg (c=[…]) while the dosage chosen for 2 and 6 was 0.01 mmol/kg (c=6.25 mM). Predominantly T1-weighted scans with some T2-weighting were performed on two rats injected with 1.
(§3) Both T1- and T2-weighted scans were performed on two rats injected with 2 and its dimeric analogue 6.

[2] = system: male rat (Sprague Dawley Crl:SD); experiment: In vivo MRI imaging of 2 and 6, T2-weighted scans; settings: for T2-weighted MRI signal intensity, liver: baseline (−10 min) 965; for T2-weighted MRI signal intensity, lean muscle: baseline (−10 min) 2673; for T2-weighted MRI signal intensity, renal cortex: baseline (−10 min) 4759; for T2-weighted MRI signal intensity, renal medulla: baseline (−10 min) 6454; for T2-weighted MRI signal intensity, bladder: baseline (−10 min) 12921; for T2-weighted MRI signal intensity, fat: baseline (−10 min) 14834
Protocol: as §1, §2, §3

[3] = 1 min after injection of 2, 0.01 mmol/kg iv
[4] = 15 min after injection of 2, 0.01 mmol/kg iv
[5] = 30 min after injection of 2, 0.01 mmol/kg iv
[6] = 45 min after injection of 2, 0.01 mmol/kg iv
[7] = injection of 2, 0.01 mmol/kg iv, first 45 min
[8] = 8 min after injection of 2, 0.01 mmol/kg iv
[9] = 22 min after injection of 2, 0.01 mmol/kg iv
[10] = 37 min after injection of 2, 0.01 mmol/kg iv
[11] = injection of 2, 0.01 mmol/kg iv, first 40 min

excretion (summary) ([1]; 0.01 mmol/kg iv): rapid excretion
Compound: CC1=NCCOCCOCCN=C(C)c2cccc1n2.O.O.[Cl-].[Cl-].[Mn+2] [Compound 2, [MnL2Cl2].2H2O]
T1-weighted MRI signal intensity, bladder [1, 3]: 5155 arbitrary units of voxel intensity | T1-weighted MRI signal intensity, lean muscle [1, 3]: 5841 arbitrary units of voxel intensity | T1-weighted MRI signal intensity, liver [1, 3]: 7568 arbitrary units of voxel intensity | T1-weighted MRI signal intensity, renal medulla [1, 3]: 9169 arbitrary units of voxel intensity | T1-weighted MRI signal intensity, renal cortex [1, 3]: 9368 arbitrary units of voxel intensity | T1-weighted MRI signal intensity, fat [1, 3]: 15671 arbitrary units of voxel intensity | T1-weighted MRI signal intensity, bladder [1, 4]: 16182 arbitrary units of voxel intensity | T1-weighted MRI signal intensity, lean muscle [1, 4]: 5696 arbitrary units of voxel intensity | T1-weighted MRI signal intensity, liver [1, 4]: 7385 arbitrary units of voxel intensity | T1-weighted MRI signal intensity, renal medulla [1, 4]: 8472 arbitrary units of voxel intensity | T1-weighted MRI signal intensity, renal cortex [1, 4]: 10144 arbitrary units of voxel intensity | T1-weighted MRI signal intensity, fat [1, 4]: 15845 arbitrary units of voxel intensity | T1-weighted MRI signal intensity, bladder [1, 5]: 11996 arbitrary units of voxel intensity | T1-weighted MRI signal intensity, lean muscle [1, 5]: 5569 arbitrary units of voxel intensity | T1-weighted MRI signal intensity, liver [1, 5]: 7812 arbitrary units of voxel intensity | T1-weighted MRI signal intensity, renal medulla [1, 5]: 7969 arbitrary units of voxel intensity | T1-weighted MRI signal intensity, renal cortex [1, 5]: 10702 arbitrary units of voxel intensity | T1-weighted MRI signal intensity, fat [1, 5]: 15745 arbitrary units of voxel intensity | T1-weighted MRI signal intensity, bladder [1, 6]: 13104 arbitrary units of voxel intensity | T1-weighted MRI signal intensity, lean muscle [1, 6]: 5574 arbitrary units of voxel intensity | T1-weighted MRI signal intensity, liver [1, 6]: 7683 arbitrary units of voxel intensity | T1-weighted MRI signal intensity, renal medulla [1, 6]: 8615 arbitrary units of voxel intensity | T1-weighted MRI signal intensity, renal cortex [1, 6]: 11485 arbitrary units of voxel intensity | T1-weighted MRI signal intensity, fat [1, 6]: 15860 arbitrary units of voxel intensity | Max. intensity change, T1-weighted, bladder [1, 7]: 218% | Max. intensity change, T1-weighted, fat [1, 7]: 9% | Max. intensity change, T1-weighted, lean muscle [1, 7]: 3% | Max. intensity change, T1-weighted, liver [1, 7]: 7% | Max. intensity change, T1-weighted, renal cortex [1, 7]: 43% | Max. intensity change, T1-weighted, renal medulla [1, 7]: 19% | effect on T1-weighted signal intensity ([1]; renal cortex, liver and lean muscle, 0.01 mmol/kg iv): causes an enhancement in the renal cortex and has negligible effect on liver and lean muscle tissue | T2-weighted MRI signal intensity, liver [2, 8]: 788 arbitrary units of voxel intensity | T2-weighted MRI signal intensity, lean muscle [2, 8]: 2386 arbitrary units of voxel intensity | T2-weighted MRI signal intensity, renal cortex [2, 8]: 3367 arbitrary units of voxel intensity | T2-weighted MRI signal intensity, renal medulla [2, 8]: 5342 arbitrary units of voxel intensity | T2-weighted MRI signal intensity, bladder [2, 8]: 7977 arbitrary units of voxel intensity | T2-weighted MRI signal intensity, fat [2, 8]: 14550 arbitrary units of voxel intensity | T2-weighted MRI signal intensity, liver [2, 9]: 577 arbitrary units of voxel intensity | T2-weighted MRI signal intensity, lean muscle [2, 9]: 2451 arbitrary units of voxel intensity | T2-weighted MRI signal intensity, renal cortex [2, 9]: 3307 arbitrary units of voxel intensity | T2-weighted MRI signal intensity, renal medulla [2, 9]: 5306 arbitrary units of voxel intensity | T2-weighted MRI signal intensity, bladder [2, 9]: 667 arbitrary units of voxel intensity | T2-weighted MRI signal intensity, fat [2, 9]: 12923 arbitrary units of voxel intensity | T2-weighted MRI signal intensity, liver [2, 10]: 400 arbitrary units of voxel intensity | T2-weighted MRI signal intensity, lean muscle [2, 10]: 2377 arbitrary units of voxel intensity | T2-weighted MRI signal intensity, renal cortex [2, 10]: 3034 arbitrary units of voxel intensity | T2-weighted MRI signal intensity, renal medulla [2, 10]: 4215 arbitrary units of voxel intensity | T2-weighted MRI signal intensity, bladder [2, 10]: 512 arbitrary units of voxel intensity | T2-weighted MRI signal intensity, fat [2, 10]: 13440 arbitrary units of voxel intensity | Max. intensity change, T2-weighted, bladder [2, 11]: −96% | Max. intensity change, T2-weighted, fat [2, 11]: −13% | Max. intensity change, T2-weighted, lean muscle [2, 11]: −11% | Max. intensity change, T2-weighted, liver [2, 11]: −59% | Max. intensity change, T2-weighted, renal cortex [2, 11]: −36% | Max. intensity change, T2-weighted, renal medulla [2, 11]: −35%
